Measurements: patent US12569422B2, “Composition and method of inhibiting cortisone reductase by applying it to the skin” (AMOREPACIFIC CORPORATION, priority 2018, dated 2026)

Assays:
Type in all cases: cell-based
[1] = target: T1, 11β-hydroxysteroid dehydrogenase type 1 (Homo sapiens, UniProt P28845); experiment: Cortisol concentration in cell culture solution of UVB-irradiated, cortisone-treated keratinocytes (ELISA); settings: coumestrol 1 μM, 5 μM
T1 construct: endogenous in cells; host or cells: normal human epidermal keratinocytes (NHEK)
Method: (§1) Human keratinocytes (normal human epidermal keratinocytes, NHEK) were cultured in a 6-well plate incubator. Specifically, the normal human epidermal keratinocytes were cultured by replacing it with phosphate-buffered saline (PBS) after 24 hours to irradiate UVB (25 mJ/cm^2) and then, adding cortisone (10 μM) to NHEK culture media having no hydrocortisone. Subsequently, the cell culture solution was collected to measure a cortisol concentration in an ELISA method, and the results are shown in FIG. 1.

keratin 1 (KRT1) = experiment: Western blotting of keratinocyte differentiation marker KRT1 in UVB-irradiated keratinocytes; settings: human keratinocytes, coumestrol 1 μM, 5 μM, 10 μM, FIG. 2
Method: as §1
(§2) In addition, after separating proteins from the human keratinocytes using a RIPA lysis buffer, protein expression of keratinocyte differentiation markers (KRT1, Filaggrin) was confirmed through western blotting, and the results are shown in FIGS. 2 and 3. Referring to FIGS. 2 and 3, in the wells containing the coumestrol (1 μM, 5 μM, 10 μM), gene expression of the keratinocyte differentiation markers (KRT1, Filaggrin) inhibited by the ultraviolet (UVB) rays was increased in the keratinocytes. In other words, the gene expression of the keratinocyte differentiation markers inhibited by the ultraviolet (UVB) rays in the keratinocytes was restored by the coumestrol, and accordingly, the coumestrol inhibited activity of the cortisone reductase and reduced the cortisol concentration, eventually restoring the gene expression of the keratinocyte differentiation markers.

Filaggrin = experiment: Western blotting of keratinocyte differentiation marker filaggrin in UVB-irradiated keratinocytes; settings: human keratinocytes, coumestrol 1 μM, 5 μM, 10 μM, FIG. 3
Method: as §1, §2

T1 sequence (P28845 whole entry): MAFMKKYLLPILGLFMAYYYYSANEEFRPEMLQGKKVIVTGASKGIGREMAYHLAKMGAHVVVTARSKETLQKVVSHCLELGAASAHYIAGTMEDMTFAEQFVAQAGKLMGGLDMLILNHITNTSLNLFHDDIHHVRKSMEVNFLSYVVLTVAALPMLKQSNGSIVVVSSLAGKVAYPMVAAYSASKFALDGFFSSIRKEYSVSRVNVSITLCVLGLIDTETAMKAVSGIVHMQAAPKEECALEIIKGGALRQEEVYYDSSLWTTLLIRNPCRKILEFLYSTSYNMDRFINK

- cortisol concentration in cell culture solution ([1]; NHEK, UVB 25 mJ/cm^2, cortisone 10 μM, compared with control before UV irradiation, FIG. 1): not significantly increased
- activity of 11β-hydroxysteroid dehydrogenase type 1 (cortisone reductase) ([1]; conclusion from cortisol ELISA in NHEK, 10 μM): inhibit activity
SMILES: O=c1oc2cc(O)ccc2c2oc3cc(O)ccc3c12 [coumestrol]
- expression of keratinocyte differentiation marker KRT1 inhibited by UVB (keratin 1 (KRT1)): increased
- expression of keratinocyte differentiation marker Filaggrin inhibited by UVB (Filaggrin): increased
